Values quoted from earlier work as cited in patent publication US20240173338A1, “PREPARATION AND ACTIVITY CHARACTERIZATION OF CANNABICITRAN ENANTIOMERS” (University of North Carolina at Wilmington, priority 2022, published 2024).

Experiments:
CB1 = CB1 (Homo sapiens, UniProt P21554)
CB2 = CB2 (Homo sapiens, UniProt P34972)
[1] = rabbits
5-HT1A = molecular target: T1, 5-HT1A (Homo sapiens, UniProt P08908)
T1 sequence (P08908 1-422): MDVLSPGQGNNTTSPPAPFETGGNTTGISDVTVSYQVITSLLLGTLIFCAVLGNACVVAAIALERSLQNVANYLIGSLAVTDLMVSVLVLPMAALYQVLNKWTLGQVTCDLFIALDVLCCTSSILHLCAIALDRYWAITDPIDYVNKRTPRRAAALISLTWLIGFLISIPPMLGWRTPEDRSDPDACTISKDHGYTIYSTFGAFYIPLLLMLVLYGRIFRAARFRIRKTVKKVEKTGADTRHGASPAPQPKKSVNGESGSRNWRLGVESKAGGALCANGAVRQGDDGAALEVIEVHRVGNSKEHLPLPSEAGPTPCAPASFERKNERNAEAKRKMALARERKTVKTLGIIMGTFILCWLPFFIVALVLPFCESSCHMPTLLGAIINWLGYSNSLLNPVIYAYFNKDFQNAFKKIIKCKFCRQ

GPR55 = GPR55 (Homo sapiens, UniProt Q9Y2T6)
Chain of GPR55 (Q9Y2T6 whole entry, species assumed): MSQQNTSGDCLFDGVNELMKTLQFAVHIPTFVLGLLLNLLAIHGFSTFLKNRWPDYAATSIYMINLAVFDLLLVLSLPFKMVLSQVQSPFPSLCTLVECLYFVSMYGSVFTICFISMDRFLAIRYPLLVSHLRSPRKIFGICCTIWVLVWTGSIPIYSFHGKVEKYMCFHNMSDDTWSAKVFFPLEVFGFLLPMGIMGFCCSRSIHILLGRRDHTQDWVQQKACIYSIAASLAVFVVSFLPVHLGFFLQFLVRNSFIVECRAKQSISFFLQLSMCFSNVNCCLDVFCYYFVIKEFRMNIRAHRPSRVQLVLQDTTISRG

Chain of CB1 (P21554 whole entry, species assumed): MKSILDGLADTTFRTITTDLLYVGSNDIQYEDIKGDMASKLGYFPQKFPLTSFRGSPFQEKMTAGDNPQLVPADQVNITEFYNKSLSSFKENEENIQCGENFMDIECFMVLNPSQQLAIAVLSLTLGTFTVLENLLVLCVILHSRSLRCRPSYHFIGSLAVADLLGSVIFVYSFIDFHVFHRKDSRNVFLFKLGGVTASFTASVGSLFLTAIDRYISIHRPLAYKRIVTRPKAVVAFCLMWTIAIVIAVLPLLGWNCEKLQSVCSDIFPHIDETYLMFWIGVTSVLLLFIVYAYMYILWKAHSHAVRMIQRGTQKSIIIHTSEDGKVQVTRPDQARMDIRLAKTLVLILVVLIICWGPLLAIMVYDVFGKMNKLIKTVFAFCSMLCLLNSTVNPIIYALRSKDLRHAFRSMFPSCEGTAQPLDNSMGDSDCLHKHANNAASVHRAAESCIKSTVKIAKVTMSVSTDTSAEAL
Chain of CB2 (P34972 whole entry, species assumed): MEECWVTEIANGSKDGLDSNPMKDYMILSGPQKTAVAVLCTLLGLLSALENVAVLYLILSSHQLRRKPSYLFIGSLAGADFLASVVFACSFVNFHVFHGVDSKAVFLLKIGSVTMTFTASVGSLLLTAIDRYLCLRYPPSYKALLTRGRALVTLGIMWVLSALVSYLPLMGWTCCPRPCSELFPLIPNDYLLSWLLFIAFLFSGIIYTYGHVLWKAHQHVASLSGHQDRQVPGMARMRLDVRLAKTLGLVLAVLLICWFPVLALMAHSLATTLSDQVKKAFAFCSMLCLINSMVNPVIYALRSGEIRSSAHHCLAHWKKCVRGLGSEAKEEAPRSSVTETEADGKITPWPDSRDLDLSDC

trans-CBD [(+)-2]
binding to CB1 (CB1): bind strongly
binding to CB2 (CB2): bind strongly

CCCCCc1cc2c3c(c1)O[C@]1(C)CC[C@@H]([C@H]3C1)C(C)(C)O2 [CBT-C (3), cannabicitran]
effect on intraocular pressure [1]: reduces intraocular pressure

trans-CBD [(−)-2]
binding to 5-HT1A (5-HT1A): known to bind
binding to GPR55 (GPR55): known to bind
binding to multiple TRPs (multiple TRPs): known to bind
